Read-outs that look alike come from different tables or passages of the source.
T1: FLhPIF1 (Homo sapiens, UniProt Q9H611)
T1 construct: Full length human PIF1 (FLhPIF1) was expressed and purified as a His-SUMO fusion; His-SUMO (cleaved yes); made in house; 'following similar protocols' to hPIF1HD (ArcticExpress BL21(DE3) E. coli)
T1 sequence (Q9H611 1-641): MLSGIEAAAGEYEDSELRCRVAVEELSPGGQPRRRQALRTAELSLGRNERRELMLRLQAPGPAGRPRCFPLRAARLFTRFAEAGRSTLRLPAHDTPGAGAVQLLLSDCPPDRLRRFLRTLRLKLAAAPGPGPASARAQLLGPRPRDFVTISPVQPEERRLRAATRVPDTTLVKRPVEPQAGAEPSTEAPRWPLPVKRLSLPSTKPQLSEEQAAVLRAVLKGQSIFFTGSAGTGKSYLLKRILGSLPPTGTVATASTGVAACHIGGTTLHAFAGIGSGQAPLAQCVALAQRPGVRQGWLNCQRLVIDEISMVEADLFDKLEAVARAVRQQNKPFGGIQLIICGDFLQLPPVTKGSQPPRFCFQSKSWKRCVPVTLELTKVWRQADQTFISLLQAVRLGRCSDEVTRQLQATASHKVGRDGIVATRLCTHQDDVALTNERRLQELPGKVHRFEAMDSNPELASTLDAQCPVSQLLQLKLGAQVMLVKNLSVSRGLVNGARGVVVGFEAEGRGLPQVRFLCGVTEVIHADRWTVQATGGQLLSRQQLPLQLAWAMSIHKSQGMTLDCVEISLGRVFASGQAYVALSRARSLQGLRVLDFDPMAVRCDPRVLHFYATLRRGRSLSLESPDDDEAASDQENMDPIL

T2: human UPF1 (hUPF1) helicase (Homo sapiens, UniProt Q92900)
T2 construct: Full-length human UPF1 helicase was expressed and purified as described previously; made in house
T2 sequence (Q92900 1-1129): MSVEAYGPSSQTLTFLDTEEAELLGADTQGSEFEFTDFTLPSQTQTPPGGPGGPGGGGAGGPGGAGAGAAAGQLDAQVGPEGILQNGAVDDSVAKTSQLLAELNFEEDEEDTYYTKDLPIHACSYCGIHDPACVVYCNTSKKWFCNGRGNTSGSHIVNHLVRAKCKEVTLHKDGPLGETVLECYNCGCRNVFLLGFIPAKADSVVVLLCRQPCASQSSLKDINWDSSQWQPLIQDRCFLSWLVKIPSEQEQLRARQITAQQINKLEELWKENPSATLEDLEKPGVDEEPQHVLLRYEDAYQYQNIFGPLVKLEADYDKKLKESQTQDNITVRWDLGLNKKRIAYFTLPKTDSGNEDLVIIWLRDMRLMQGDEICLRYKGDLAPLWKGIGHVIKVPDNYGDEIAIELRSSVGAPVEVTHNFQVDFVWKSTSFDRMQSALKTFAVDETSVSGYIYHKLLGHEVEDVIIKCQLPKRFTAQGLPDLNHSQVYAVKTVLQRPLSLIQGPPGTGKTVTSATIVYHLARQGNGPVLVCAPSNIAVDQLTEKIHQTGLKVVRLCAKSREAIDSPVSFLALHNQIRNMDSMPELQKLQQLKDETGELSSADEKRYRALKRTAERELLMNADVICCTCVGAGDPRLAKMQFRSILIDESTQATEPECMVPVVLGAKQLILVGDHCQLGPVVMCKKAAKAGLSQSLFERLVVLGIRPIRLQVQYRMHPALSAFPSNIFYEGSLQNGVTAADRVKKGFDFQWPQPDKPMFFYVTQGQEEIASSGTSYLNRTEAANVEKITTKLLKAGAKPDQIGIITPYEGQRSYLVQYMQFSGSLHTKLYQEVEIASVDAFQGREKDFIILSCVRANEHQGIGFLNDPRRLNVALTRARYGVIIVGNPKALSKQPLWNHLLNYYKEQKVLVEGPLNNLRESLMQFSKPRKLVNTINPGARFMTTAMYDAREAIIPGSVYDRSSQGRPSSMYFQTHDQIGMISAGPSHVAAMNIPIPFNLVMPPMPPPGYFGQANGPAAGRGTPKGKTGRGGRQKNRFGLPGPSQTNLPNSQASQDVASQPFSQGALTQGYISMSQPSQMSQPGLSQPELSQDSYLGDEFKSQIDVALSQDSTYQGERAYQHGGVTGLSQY

T3: hPIF1HD wild type (Homo sapiens, UniProt Q9H611 206-620)
T3 sequence: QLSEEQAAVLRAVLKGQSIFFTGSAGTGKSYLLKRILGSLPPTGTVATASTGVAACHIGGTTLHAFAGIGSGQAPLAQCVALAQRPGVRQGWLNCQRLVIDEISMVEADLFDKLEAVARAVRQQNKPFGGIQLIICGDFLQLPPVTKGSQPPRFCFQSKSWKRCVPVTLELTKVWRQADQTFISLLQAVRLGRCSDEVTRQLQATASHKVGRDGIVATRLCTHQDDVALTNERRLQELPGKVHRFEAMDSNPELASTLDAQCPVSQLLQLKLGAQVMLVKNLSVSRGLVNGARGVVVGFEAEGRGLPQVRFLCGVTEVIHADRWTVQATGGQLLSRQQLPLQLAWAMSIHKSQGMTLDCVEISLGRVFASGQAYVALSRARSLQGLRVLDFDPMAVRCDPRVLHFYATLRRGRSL


Tests used:
[1] = target: T1, FLhPIF1; experiment: helicase assay after pre-incubation of SMI with FLhPIF1; format: biochemical; settings: for IC50: read-out: IC50 for dsDNA unwinding by FLhPIF1 following pre-incubation
Experimental: Helicase activity was assayed using a radiometric strand displacement assay employing a partially single- and double-stranded substrate generated by annealing two oligonucleotides: 5′-(T)55-[…] and 5′-[…], as described previously ([19],[28]). The reaction buffer was 20 mM HEPES–NaOH pH 7.5, 20 mM NaCl, 5.5 mM MgCl2, 5 mM ATP, 1 mM DTT and 0.1 mg/ml BSA. SMIs (100 mM stocks in DMSO) were assayed at up to 2 mM without pre-incubation with FLhPIF1, unless otherwise stated. Reactions (0.1 nM substrate) were incubated at 37°C for 20 min, followed by addition of 0.2 volumes of 120 mM EDTA, 0.6% (w/v) SDS, 60% (v/v) glycerol and 0.1% (w/v) bromophenol blue before resolution of products by polyacrylamide gel electrophoresis (8%, 19:1 acrylamide:bis-acrylamide), 1× TBE (90 mM Tris–borate/2 mM EDTA, pH 8.3 with 0.05% (w/v) SDS buffer). Dried gels were exposed to phosphorimaging plates (Fujifilm) for imaging and quantification (Fuji FLA3000, image gauge V3.3 software). IC50 values were analysed by non-linear regression (variable slope) using GraphPad Prism.
First, we screened inhibitory activity of the SMIs listed in Table 1, following incubation of 100 nM FLhPIF1 with 100 μM SMI for 1 h at 22°C in the absence of substrates (ATP and DNA), before a 1:10 dilution into helicase reactions. […] Next, compounds 2, 5, 6 and 11, along with 4 and 1D were selected for analysis in a pre-incubation time-course (100 nM FLhPIF1, 100 μM SMI), up to 3 h before assaying helicase activity.
(§1) In parallel, IC50 values for inhibition of human UPF1 (hUPF1) helicase activity by the SMIs were also determined under the same conditions. UPF1-like SF1B helicases are the most closely related family of helicases to PIF1, with significant structural and mechanistic similarity ([52]).
(§2) Figure 6. SMI IC50 for dsDNA unwinding determined following pre-incubation. SMIs (0.0078–2 mM SMI) were incubated for 2 h at 22°C (100 nM FLhPIF1 or hUPF1) before dilution (1:10) in the standard helicase assay (0.1 nM DNA substrate). For 1D and 6, structures, electrophoresis of FLhPIF1 reaction product and graphs for IC50 value determination are shown. The graphed data include the activity of SMIs towards hUPF1 and IC50 values obtained are given. See Supplementary Figure S14 for the complete data set. TEXT PRINTED IN THE PICTURE: 1D: IC50 (μM): PIF1: 978 ± 221; IC50 (μM): UPF1: N.D. | 6: IC50 (μM): PIF1: 79.4 ± 16; IC50 (μM): UPF1: 1750 ± 426

[2] = target: T2, human UPF1 (hUPF1) helicase; experiment: helicase assay after pre-incubation of SMI with hUPF1; format: biochemical; settings: 2 h pre-incubation
Experimental: Full-length human UPF1 helicase was expressed and purified as described previously ([36]).
as §1, §2
Supplementary Figure 14. IC50 DNA unwinding determined following 2 hours pre-incubation. […] The assay procedure and reaction conditions for each helicase were identical (see methods, main manuscript). The figure complements main manuscript Figure 6. […] The reason for this is unclear.

[3] = target: T3, hPIF1HD wild type; experiment: EMSA; 5 mM AMP-PNP, 5.5 mM MgCl2; 2 nM protein, 0.25 nM DNA; no inhibitor; 20 mM HEPES-NaOH pH 7.5, 20 mM NaCl, 5.5 mM MgCl2, 5 mM AMP-PNP, 1 mM DTT, 0.1 mg/ml BSA; 0.25 nM DNA; binding temperature not stated explicitly (helicase assay conditions 37 C); 5% PAGE, 0.25x TBE; settings: protein: recombinant; tags: N-terminal His6 removed; GSRM cloning residues remain; label: 5'-32P; single strand

Molecule	IC50 ([1]; 2 h pre-incubation at 22°C with 100 nM FLhPIF1, then 1:10 dilution into helicase assay) [µM]	IC50 ([1]; 2 h pre-incubation at 22°C) [µM]	increase in inhibition of FLhPIF1 DNA unwinding after pre-incubation ([1]; 3 h pre-incubation, 100 nM FLhPIF1, 100 μM SMI)	inhibition of hUPF1 helicase [2]	binding result [3]
CC(=O)Nc1ccc(-c2csc(N)n2)cc1 [Compound 1D]	978 ± 221	~1000	5–10%	minimal inhibition	–
oligo d(T)55 (ssDNA) DNA: TTTTTTTTTTTTTTTTTTTTTTTTTTTTTTTTTTTTTTTTTTTTTTTTTTTTTTT	–	–	–	–	binds
